Results taken from paper doi:10.1101/2022.07.25.501471v5 (biorxiv, 2023).

Tests used:
[1] = target: T1, CreTPT3 (His-CreTPT3) (Chlamydomonas reinhardtii, UniProt A8HN02); test: inhibition of […]Pi uptake into proteoliposomes; type: cell-based; details: competitive; 0.25 mM external Pi, 30 mM Pi inside, competitor 0.05-5 mM, 4 min
T1 sequence (A8HN02 61-406): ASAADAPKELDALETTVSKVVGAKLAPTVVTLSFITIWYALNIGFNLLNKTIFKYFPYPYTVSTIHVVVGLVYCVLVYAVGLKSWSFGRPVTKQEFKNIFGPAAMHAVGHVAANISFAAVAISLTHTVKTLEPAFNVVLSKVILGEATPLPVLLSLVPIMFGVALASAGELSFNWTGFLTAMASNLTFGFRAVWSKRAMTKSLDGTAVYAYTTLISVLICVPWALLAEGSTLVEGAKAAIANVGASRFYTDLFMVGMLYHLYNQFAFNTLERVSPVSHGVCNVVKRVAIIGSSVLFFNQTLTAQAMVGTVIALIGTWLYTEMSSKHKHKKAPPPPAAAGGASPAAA

[2] = target: T2, CreTPT2 (His-CreTPT2) (Chlamydomonas reinhardtii, UniProt A0A2K3DMX1); test: inhibition of […]Pi uptake into proteoliposomes; type: cell-based; details: competitive; 0.25 mM external Pi, 30 mM Pi inside, competitor 0.05-5 mM, 4 min
T2 sequence (A0A2K3DMX1 71-401): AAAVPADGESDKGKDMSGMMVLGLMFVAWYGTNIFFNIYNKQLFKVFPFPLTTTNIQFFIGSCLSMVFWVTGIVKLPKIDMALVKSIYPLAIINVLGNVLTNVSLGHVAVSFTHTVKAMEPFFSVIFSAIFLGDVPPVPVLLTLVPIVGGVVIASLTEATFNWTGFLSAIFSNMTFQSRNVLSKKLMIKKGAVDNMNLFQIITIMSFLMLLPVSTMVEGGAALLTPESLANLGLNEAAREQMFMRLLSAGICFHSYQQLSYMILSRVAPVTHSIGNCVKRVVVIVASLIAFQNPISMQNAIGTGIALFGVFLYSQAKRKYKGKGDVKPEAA

Work on `O=C(CO)COP(=O)(O)O` [DHAP] yielded a Ki [1] of 570 ± 13 µM and a Ki [2] of 710 ± 120 µM.
`O=C(O)[C@H](O)COP(=O)(O)O` [3-PGA] showed a Ki [1] of 790 ± 122 µM and a Ki [2] of 780 ± 190 µM.
